In PubChem BioAssay AID1963874 (Molecular Pharmacology Branch, DTP, NCI, 2024):

System: 253994-281-T-J1-PDC KRAS-mutant spheroids with HUVEC/MSC, viability
Assay: Anticancer human tumor 253994-281-T-J1-PDC patient-derived colorectal carcinoma cell line growth inhibition [KRAS2]
Conditions: for viability, T/C: stronger effect = lower value
Summary of the method: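 KRAS-mutant tumor cells were grown as spheroids with HUVEC endothelial cells and human MSCs as stroma. Targeted agents were tested alone and with KRAS pathway inhibitors. Doses started at or near clinical Cmax, or 10 microM, descending half-log.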

[1] = curve of first compound, second compound 0.0316 µM
[2] = curve of first compound, second compound 0.1 µM
[3] = curve of first compound, second compound 0.316 µM
[4] = curve of first compound, second compound 1 µM
[5] = curve of first compound, second compound 3.16 µM
[6] = second compound 0.0316 µM, first compound 0.0316 µM
[7] = second compound 0.0316 µM, first compound 0.1 µM
[8] = second compound 0.1 µM, first compound 0.00316 µM
[9] = second compound 0.1 µM, first compound 0.01 µM
[10] = second compound 0.1 µM, first compound 0.0316 µM
[11] = second compound 0.1 µM, first compound 0.1 µM
[12] = second compound 0.316 µM, first compound 0.00316 µM
[13] = second compound 0.316 µM, first compound 0.01 µM
[14] = second compound 0.316 µM, first compound 0.0316 µM
[15] = second compound 0.316 µM, first compound 0.1 µM
[16] = second compound 1 µM, first compound 0.00316 µM
[17] = second compound 1 µM, first compound 0.01 µM
[18] = second compound 1 µM, first compound 0.0316 µM
[19] = second compound 1 µM, first compound 0.1 µM
[20] = second compound 3.16 µM, first compound 0.00316 µM
[21] = second compound 3.16 µM, first compound 0.01 µM
[22] = second compound 3.16 µM, first compound 0.0316 µM
[23] = second compound 3.16 µM, first compound 0.1 µM
[24] = curve of first compound, second compound 10 µM
[25] = second compound 0.1 µM, first compound 0.316 µM
[26] = second compound 0.1 µM, first compound 1 µM
[27] = second compound 0.316 µM, first compound 0.316 µM
[28] = second compound 0.316 µM, first compound 1 µM
[29] = second compound 1 µM, first compound 0.316 µM
[30] = second compound 1 µM, first compound 1 µM
[31] = second compound 3.16 µM, first compound 0.316 µM
[32] = second compound 3.16 µM, first compound 1 µM
[33] = second compound 10 µM, first compound 0.01 µM
[34] = second compound 10 µM, first compound 0.0316 µM
[35] = second compound 10 µM, first compound 0.1 µM
[36] = second compound 10 µM, first compound 0.316 µM
[37] = second compound 10 µM, first compound 1 µM
[38] = second compound 0.1 µM, first compound 3.16 µM
[39] = second compound 0.316 µM, first compound 3.16 µM
[40] = second compound 1 µM, first compound 3.16 µM
[41] = second compound 3.16 µM, first compound 3.16 µM
[42] = second compound 10 µM, first compound 3.16 µM
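Further: spheroids exposed to agents for seven days before readout.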
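Wherever viability, T/C is given: percent of DMSO vehicle control viability.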

SMILES | IC50 [2] [nM] | IC50 [3] [nM] | IC50 [4] [nM] | IC50 [5] [nM] | viability, T/C [9] [%] | viability, T/C [10] [%] | viability, T/C [11] [%] | viability, T/C [13] [%] | viability, T/C [14] [%] | viability, T/C [15] [%] | viability, T/C [17] [%] | viability, T/C [18] [%] | viability, T/C [19] [%] | viability, T/C [21] [%] | viability, T/C [22] [%] | viability, T/C [23] [%] | viability, T/C [25] [%] | viability, T/C [26] [%] | viability, T/C [27] [%] | viability, T/C [28] [%] | other results
CN(C)C/C=C/C(=O)Nc1cc2c(Nc3ccc(F)c(Cl)c3)ncnc2cc1O[C@H]1CCOC1 + C=CC(=O)N1CCN(c2nc(OCC3CCCN3C)nc3c2CCN(c2cccc4cccc(C)c24)C3)CC1CC#N | > 100 | > 100 | > 100 | 0.72 | 86.1 | 69.2 | 53.8 | 77.4 | 78.3 | 66.5 | 69.4 | 73.1 | 62.2 | 22 | 19.6 | 5.55 | – | – | – | – | IC50 [1]: > 100 nM; viability, T/C (second compound 0.0316 µM, first compound 0.000316 µM): 95.7%; viability, T/C (second compound 0.0316 µM, first compound 0.001 µM): 89.4%; viability, T/C (second compound 0.0316 µM, first compound 0.00316 µM): 92.3%; viability, T/C (second compound 0.0316 µM, first compound 0.01 µM): 95.7%; viability, T/C [6]: 88.5%; viability, T/C [7]: 54%; viability, T/C (second compound 0.1 µM, first compound 0.000316 µM): 83.2%; viability, T/C (second compound 0.1 µM, first compound 0.001 µM): 91.5%; viability, T/C [8]: 76.6%; viability, T/C (second compound 0.316 µM, first compound 0.000316 µM): 95.7%; viability, T/C (second compound 0.316 µM, first compound 0.001 µM): 81.3%; viability, T/C [12]: 87.5%; viability, T/C (second compound 1 µM, first compound 0.000316 µM): 97.9%; viability, T/C (second compound 1 µM, first compound 0.001 µM): 108%; viability, T/C [16]: 83.1%; viability, T/C (second compound 3.16 µM, first compound 0.000316 µM): 53.8%; viability, T/C (second compound 3.16 µM, first compound 0.001 µM): 48.5%; viability, T/C [20]: 4.58%
CCN1CCN(Cc2ccc(Nc3ncc(F)c(-c4cc(F)c5nc(C)n(C(C)C)c5c4)n3)nc2)CC1 + COc1cc2nc(C)nc(NC(C)c3cc(N)cc(C(F)(F)F)c3)c2cc1OC1CCOC1 | 390 | 317 | 321 | 236 | 93.3 | 83 | 62.9 | 86.8 | 74.3 | 64.4 | 90.5 | 74.7 | 61.8 | 73.9 | 70.8 | 57.6 | 55.3 | 38.9 | 51.3 | 33.7 | IC50 [24]: 162 nM; viability, T/C [8]: 102%; viability, T/C [12]: 79.6%; viability, T/C [16]: 80.4%; viability, T/C [29]: 53.3%; viability, T/C [30]: 35.5%; viability, T/C [20]: 90.2%; viability, T/C [31]: 53.3%; viability, T/C [32]: 29.4%; viability, T/C (second compound 10 µM, first compound 0.00316 µM): 78%; viability, T/C [33]: 86.3%; viability, T/C [34]: 72.7%; viability, T/C [35]: 53.8%; viability, T/C [36]: 40.6%; viability, T/C [37]: 8.08%
CC(=O)OC12COC1CC(O)C1(C)C(=O)C(O)C3=C(C)C(OC(=O)C(O)C(NC(=O)OC(C)(C)C)c4ccccc4)CC(O)(C(OC(=O)c4ccccc4)C21)C3(C)C (centres undefined) + COc1cc2nc(C)nc(NC(C)c3cc(N)cc(C(F)(F)F)c3)c2cc1OC1CCOC1 | 16.7 | < 10 | < 10 | < 10 | 61.3 | 35.7 | 26.1 | 46.2 | 26.9 | 21.4 | 35.9 | 41.4 | 21.6 | 25.8 | 21.6 | 17.4 | 20.6 | 22.6 | 19.7 | 18.8 | IC50 [24]: < 10 nM; viability, T/C [38]: 19.6%; viability, T/C [39]: 19.1%; viability, T/C [29]: 19.9%; viability, T/C [30]: 19.7%; viability, T/C [40]: 22.8%; viability, T/C [31]: 18%; viability, T/C [32]: 20.1%; viability, T/C [41]: 20.6%; viability, T/C [33]: 20.1%; viability, T/C [34]: 22.4%; viability, T/C [35]: 19.2%; viability, T/C [36]: 23.3%; viability, T/C [37]: 20.2%; viability, T/C [42]: 25.4%
COc1cc2nc(C)nc(NC(C)c3cc(N)cc(C(F)(F)F)c3)c2cc1OC1CCOC1 (centres undefined) | – | – | – | – | – | – | – | – | – | – | – | – | – | – | – | – | – | – | – | – | viability, T/C (compound 0.316 µM): 86.9% [middle of 17 runs]; IC50 (compound alone, run of 08/19/2021): > 10000 nM; IC50 (compound alone, run of 08/26/2021): > 10000 nM; IC50 (compound alone, run of 09/02/2021): > 10000 nM
COc1cc(Nc2ncc3c(n2)-c2ccc(Cl)cc2C(c2c(F)cccc2OC)=NC3)ccc1C(=O)O + C=CC(=O)N1CCN(c2nc(OCC3CCCN3C)nc3c2CCN(c2cccc4cccc(C)c24)C3)CC1CC#N | > 10000 | < 31.6 | > 10000 | < 31.6 | – | 76.6 | 36.6 | – | 60.9 | 35.9 | – | 70.1 | 39.5 | – | 17.1 | 8.06 | 38.9 | 40.7 | 32.6 | 45.9 | IC50 [1]: 89.8 nM; viability, T/C [6]: 74.5%; viability, T/C [7]: 42.8%; viability, T/C (second compound 0.0316 µM, first compound 0.316 µM): 39%; viability, T/C (second compound 0.0316 µM, first compound 1 µM): 48.5%; viability, T/C (second compound 0.0316 µM, first compound 3.16 µM): 50%; viability, T/C (second compound 0.0316 µM, first compound 10 µM): 57%; viability, T/C [38]: 54.2%; viability, T/C (second compound 0.1 µM, first compound 10 µM): 64.4%; viability, T/C [39]: 50.4%; viability, T/C (second compound 0.316 µM, first compound 10 µM): 55.1%; viability, T/C [29]: 36%; viability, T/C [30]: 40.3%; viability, T/C [40]: 60.6%; viability, T/C (second compound 1 µM, first compound 10 µM): 58.4%; viability, T/C [31]: 5.83%; viability, T/C [32]: 20.6%; viability, T/C [41]: 25.9%; viability, T/C (second compound 3.16 µM, first compound 10 µM): 25.9%
CC1COCCN1c1cc(-c2ccnn2C)c2ccnc(-c3ccn[nH]3)c2n1 (centres undefined) + CNCc1ccccc1-c1csc(C(C)Nc2nc(C)nc3cc(OC)c(OC)cc23)c1 | > 3160 | > 3160 | 296 | < 10 | 85.8 | 106 | 76.1 | 108 | 91.5 | 73.5 | 89.5 | 85.5 | 67.5 | 42.9 | 42 | 27.3 | 50.7 | 60.2 | 46.5 | 55.9 | IC50 [24]: < 10 nM; viability, T/C [38]: 52.4%; viability, T/C [39]: 57.1%; viability, T/C [29]: 47%; viability, T/C [30]: 54.8%; viability, T/C [40]: 42.1%; viability, T/C [31]: 17.9%; viability, T/C [32]: 24%; viability, T/C [41]: 14.9%; viability, T/C [33]: 0.59%; viability, T/C [34]: 0.21%; viability, T/C [35]: 0.17%; viability, T/C [36]: 0.19%; viability, T/C [37]: 0.16%; viability, T/C [42]: 0.23%
